Source: the supplement of paper PMC9663587

Legend:
Assay in all cases: GRmax, 72 h; higher = less effect;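 also: breast cell lines in 384-well plates, nine doses across a 10^4 range, Dye Drop imaging of viable cells vs DMSO and time-zero plates, GR 0 means no net growth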
[1] = test system: MDAMB361
[2] = test system: SUM229PE
[3] = test system: MDAMB231
[4] = test system: EVSAT
[5] = test system: ZR751
[6] = test system: SUM52PE
[7] = test system: SUM185PE
[8] = test system: AU565
[9] = test system: CAL851
[10] = test system: HS578T
[11] = test system: MDAMB453
[12] = test system: T47D
[13] = test system: SUM44PE

CCNC(=O)c1noc(-c2cc(C(C)C)c(O)cc2O)c1-c1ccc(CN2CCOCC2)cc1 [Luminespib/NVP-AUY922] (max 1 µM)
GRmax, 72 h [1]: -0.885 GR
GRmax, 72 h [2]: -0.293 GR
GRmax, 72 h [3]: -0.178 GR
GRmax, 72 h [4]: -0.29 GR
GRmax, 72 h [5]: 0.0576 GR
GRmax, 72 h [6]: -0.0956 GR
GRmax, 72 h [7]: -0.103 GR
GRmax, 72 h [8]: -0.231 GR
GRmax, 72 h [9]: -0.384 GR
GRmax, 72 h [10]: -0.114 GR
GRmax, 72 h [11]: -0.499 GR
GRmax, 72 h [12]: 0.0212 GR
GRmax, 72 h [13]: -0.483 GR

CCOc1cc2ncc(C#N)c(Nc3ccc(OCc4ccccn4)c(Cl)c3)c2cc1NC(=O)/C=C/CN(C)C [Neratinib/HKI272] (max 3.162 µM)
GRmax, 72 h [1]: -0.528 GR
GRmax, 72 h [2]: 0.205 GR
GRmax, 72 h [3]: -0.0957 GR
GRmax, 72 h [4]: 0.649 GR
GRmax, 72 h [5]: 0.709 GR
GRmax, 72 h [6]: 0.491 GR
GRmax, 72 h [7]: 0.25 GR
GRmax, 72 h [8]: -0.638 GR
GRmax, 72 h [9]: -0.326 GR
GRmax, 72 h [10]: -0.161 GR
GRmax, 72 h [11]: -0.322 GR
GRmax, 72 h [12]: 0.195 GR
GRmax, 72 h [13]: -0.202 GR

O=C(c1cc(Cc2n[nH]c(=O)c3ccccc23)ccc1F)N1CCN(C(=O)C2CC2)CC1 [Olaparib/AZD2281] (max 10 µM)
GRmax, 72 h [1]: 0.0945 GR
GRmax, 72 h [2]: 0.75 GR
GRmax, 72 h [3]: 0.618 GR
GRmax, 72 h [4]: 0.773 GR
GRmax, 72 h [5]: 0.801 GR
GRmax, 72 h [6]: 0.88 GR
GRmax, 72 h [7]: 0.75 GR
GRmax, 72 h [8]: 0.572 GR
GRmax, 72 h [9]: 0.387 GR
GRmax, 72 h [10]: 0.444 GR
GRmax, 72 h [11]: -0.0358 GR
GRmax, 72 h [12]: 0.53 GR
GRmax, 72 h [13]: 0.803 GR

CC(=O)O[C@H]1C(=O)[C@@]2(C)[C@H]([C@H](OC(=O)c3ccccc3)[C@]3(O)C[C@H](OC(=O)[C@H](O)[C@@H](NC(=O)c4ccccc4)c4ccccc4)C(C)=C1C3(C)C)[C@]1(OC(C)=O)CO[C@@H]1C[C@@H]2O [Paclitaxel] (max 1 µM)
GRmax, 72 h [1]: -0.609 GR
GRmax, 72 h [2]: -0.377 GR
GRmax, 72 h [3]: -0.12 GR
GRmax, 72 h [4]: -0.271 GR
GRmax, 72 h [5]: -0.0835 GR
GRmax, 72 h [6]: -0.401 GR
GRmax, 72 h [7]: 0.298 GR
GRmax, 72 h [8]: -0.498 GR
GRmax, 72 h [9]: -0.346 GR
GRmax, 72 h [10]: -0.375 GR
GRmax, 72 h [11]: 0.0356 GR
GRmax, 72 h [12]: -0.134 GR
GRmax, 72 h [13]: -0.474 GR

CS(=O)(=O)N1CCN(Cc2cc3nc(-c4cccc5[nH]ncc45)nc(N4CCOCC4)c3s2)CC1 [Pictilisib/GDC0941] (max 10 µM)
GRmax, 72 h [1]: -0.938 GR
GRmax, 72 h [2]: 0.0426 GR
GRmax, 72 h [3]: 0.305 GR
GRmax, 72 h [4]: -0.565 GR
GRmax, 72 h [5]: -0.0806 GR
GRmax, 72 h [6]: -0.205 GR
GRmax, 72 h [7]: 0.0142 GR
GRmax, 72 h [8]: -0.405 GR
GRmax, 72 h [9]: -0.0252 GR
GRmax, 72 h [10]: 0.0345 GR
GRmax, 72 h [11]: -0.374 GR
GRmax, 72 h [12]: -0.147 GR
GRmax, 72 h [13]: -0.205 GR

O=C1NC(=NCc2cccs2)SC1=Cc1ccc2ncccc2c1 [R0-3306] (max 10 µM)
GRmax, 72 h [1]: 0.111 GR
GRmax, 72 h [2]: -0.07 GR
GRmax, 72 h [3]: 0.206 GR
GRmax, 72 h [4]: -0.27 GR
GRmax, 72 h [5]: 0.51 GR
GRmax, 72 h [6]: 0.114 GR
GRmax, 72 h [7]: 0.827 GR
GRmax, 72 h [8]: -0.185 GR
GRmax, 72 h [9]: -0.0866 GR
GRmax, 72 h [10]: -0.0503 GR
GRmax, 72 h [11]: 0.0452 GR
GRmax, 72 h [12]: -0.0261 GR
GRmax, 72 h [13]: -0.266 GR

CNCc1ccc(-c2[nH]c3cc(F)cc4c3c2CCNC4=O)cc1 [Rucaparib] (max 10 µM)
GRmax, 72 h [1]: 0.11 GR
GRmax, 72 h [2]: 0.888 GR
GRmax, 72 h [3]: 0.634 GR
GRmax, 72 h [4]: 0.908 GR
GRmax, 72 h [5]: 0.835 GR
GRmax, 72 h [6]: 0.961 GR
GRmax, 72 h [7]: 0.772 GR
GRmax, 72 h [8]: 0.718 GR
GRmax, 72 h [9]: 0.44 GR
GRmax, 72 h [10]: 0.683 GR
GRmax, 72 h [11]: 0.18 GR
GRmax, 72 h [12]: 0.854 GR
GRmax, 72 h [13]: 0.867 GR
